From patent US5744621A, “Irreversible HIV protease inhibitors, intermediates, compositions and processes for the preparation thereof” (Lucky Limited., priority 1992, dated 1998) come the findings set out here.

Data set [1] deals with H9 cell or Sup T1 cell. Description: Cytotoxicity in H9 or Sup T1 cells (trypan blue dye exclusion). The format is cell-based. The conditions noted are these: human, h9 or sup t1 cells.
Data set [2] addresses HIV-1. The data set can be described thus: Anti-viral activity: syncytium formation (Sup T1) or reverse transcriptase assay (H9). The format is cell-based.
Data set [3] can be described thus: Cytotoxicity in H9 or Sup T1 cells (trypan blue dye exclusion). The format is cell-based. The note with it: human.
For data set [4], the target named is T1, HIV-1 protease (Human immunodeficiency virus type 1 group M subtype B, UniProt P04585).
T1 construct: 2.6 nM of HIV-1 protease
The data set can be described thus: Assay for inhibitory effect on HIV protease (residual enzyme activity, HPLC of substrate cleavage). The format is biochemical. The note with it: pH 5.5; for Ki / kinact: HIV-1 protease 2.6 nM; for Ki: inhibition constant; for kinact: rate constant of covalent bond formation, read-out: kina (converted); for kinact/KI: second order rate constant, HIV-1 protease, read-out: kina /KI (converted). An outline of the steps: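 HIV-1 protease (2.6 nM) incubated with inhibitor in 50 mM sodium acetate pH 5.5, 1 mM DTT, 1 mM EDTA, 0.75 M ammonium sulfate, 0.2 M NaCl, 0.1% NP40. Residual activity was sampled over time using 100 μM p-NO2-Phe undecapeptide substrate (KM 20 μM), HPLC, 280 nm. kobs came from ln(activity)-versus-time slope, and KI and kina from kinetic fitting.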

The mark [5] stands for this setting: concentration that causes death of cells by 50%, H9 or Sup T1 cells, 37° C, read-out: CT50 (the source's name).
[6] abbreviates: Human immunodeficiency virus 1, SUP-T1.

Where two headings read alike, the source gives them in different places.

For `CC(C)[C@H](NC(=O)OCc1ccccc1)C(=O)N[C@@H](Cc1ccccc1)[C@@H](O)[C@H](O)[C@H](Cc1ccccc1)NC(=O)[C@@H](NC(=O)OCc1ccccc1)C(C)C` [A-75925, reference compound], in data set [1], the CC50 was greater than 100000 nM. Moreover, the 50% inhibitory concentration (IC50) in data set [2] (inhibits proliferation of HIV by 50%, Sup T1 syncytium or H9 reverse transcriptase assay, 37° C, read-out: IC50) stood at 250 nM.
For `CC(C)[C@H](NC(=O)OCc1ccccc1)C(=O)N[C@@H](Cc1ccccc1)[C@H]1O[C@H]1CNC(=O)OC(C)(C)C` [compound 82, 4S-[N^1-(t-butoxycarbonyl)amino]-[N^4-[(N-benzyloxycarbonyl-L-valinyl)amino]]-5-phenyl-(2S,3R)-(Z)-epoxypentane], in data set [3] (setting [5]), the CC50 was greater than 10000 nM. Also, in data set [4], the affinity corresponds to a Ki of 450 nM, the kinact is 0.0183 s⁻¹ and the kinact/KI was 40000 M⁻¹ s⁻¹. The molecule further had an IC50 in data set [2] (setting [6]) of 750 nM.
Taken in the same sequence, the figures for `CC(C)(C)OC(=O)NC[C@@H]1O[C@@H]1[C@H](Cc1ccccc1)NC(=O)[C@H](CC(N)=O)NC(=O)c1ccc2ccccc2n1` [compound 83] were greater than 10000 nM, 400 nM, 0.02 s⁻¹, 50000 M⁻¹ s⁻¹ and 750 nM.
Turning to `NC(=O)C[C@H](NC(=O)c1ccc2ccccc2n1)C(=O)NC[C@@H]1O[C@@H]1[C@H](Cc1ccccc1)NC(=O)[C@H](CC(N)=O)NC(=O)c1ccc2ccccc2n1` [compound 84], in data set [3] (setting [5]), the CC50 is greater than 100000 nM. Further, in data set [4], the Ki was determined as 500 nM, the kinact is 0.00333 s⁻¹ and the kinact/KI was 6670 M⁻¹ s⁻¹. The molecule also displayed an IC50 in data set [2] (setting [6]) of 1000 nM.
In turn, `NC(=O)C[C@H](NC(=O)OCc1ccccc1)C(=O)NC[C@@H]1O[C@@H]1[C@H](CC1CCCCC1)NC(=O)[C@H](CC(N)=O)NC(=O)OCc1ccccc1` [compound 85] showed a CC50 in data set [3] (h9 or sup t1 cells) greater than 100000 nM. Besides, the Ki in data set [4] was greater than 10000 nM. Also, inhibition in data set [2] (setting [6]) was half-maximal at 5000 nM (IC50).
Take `CC(C)[C@H](NC(=O)OCc1ccccc1)C(=O)NC[C@@H]1O[C@@H]1[C@H](CC1CCCCC1)NC(=O)[C@@H](NC(=O)OCc1ccccc1)C(C)C` [compound 86, 4S-1,4-bis[N-(N'-benzyloxycarbonyl-L-valinyl)amino]-5-cyclohexyl-(2S,3R)-(Z)-epoxypentane]: in data set [3] (setting [5]), the CC50 is greater than 100000 nM. In addition, in data set [4], the inhibition constant Ki amounted to 50 nM, the kinact is 0.00333 s⁻¹ and the kinact/KI is 66700 M⁻¹ s⁻¹. Also, the IC50 in data set [2] (setting [6]) came out at 500 nM.
